Here are results for seven compounds from patent US20140057915A1, “KINASE INHIBITORS” (TOPIVERT PHARMA LIMITED, priority 2012, published 2014).

Data set [1] deals with IL-8 release, d-U937 cells. Nature of the data set: LPS-induced IL-8 release in d-U937 cells. Format: cell-based. Conditions: Homo sapiens, dU937; Table 4c1; read-out: LPS Induced Release of Cytokine in d-U937 Cells, IL-8 IC50. The method in brief: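 IL-8 release after a 4 hr challenge with LPS (0.1 μg/mL, E. coli 0111:B4) following a 2 hr compound pretreatment. Cells were human U937 monocytes differentiated to macrophage-type with PMA 100 ng/mL for 48–72 hr. Relative 50% effective concentration derived from concentration–response data.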

The next data set deals with d-U937 cells. Nature of the data set: Cell viability: MTT assay. Format: cell-based, human. The note with it: 1 μg/mL. The method in brief: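 Differentiated U937 cells exposed to compound at 1 or 10 μg/mL, either 4 h in 5% FCS or 24 h in 10% FCS RPMI1640. MTT then added for 1 h, formazan dissolved in DMSO and read at 550 nm. Viability loss given as % versus 0.5% DMSO vehicle; apparent gains appear negative.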
In general terms: Tetrazolium assays rely on reduction of a dye to a coloured formazan, in cell work by metabolically active cells.

Data set [2] deals with TNFα release, d-U937 cells. Put plainly: LPS-induced TNFα release in d-U937 cells. In kind it is cell-based. Conditions: Homo sapiens, dU937; relative to 10 μg/mL BIRB796; Table 4c1; read-out: LPS Induced Release of Cytokine in d-U937 Cells, TNFα REC50. In outline: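 U937 cells differentiated with PMA (100 ng/mL, 48–72 hr), pre-treated with compound for 2 hr, then stimulated with E. coli LPS (0.1 μg/mL) for 4 hr. Supernatant cytokine measured by sandwich ELISA; inhibition versus vehicle control, REC50 from concentration-response curve.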

For a further data set, the target named is cSrc (Homo sapiens, UniProt P12931). Put plainly: c-Src enzyme inhibition (FRET). In kind it is biochemical. The note with it: Table 4a1. In outline: (§1)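 2 hr RT enzyme + cpd (added solns 4/0.4/0.04/0.004 μg/mL); + FRET peptide (8 μM soln) + ATP soln (c-Src 800 μM, Syk 60 μM), 1 hr; protease development 1 hr; read donor/acceptor emission ratio.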
In data set [3] the test system is ICAM-1 expression, BEAS2B cells. Nature of the data set: Poly I:C-induced ICAM-1 expression in BEAS2B cells. In kind it is cell-based. The note with it: Homo sapiens, BEAS-2B; read-out: Poly IC induced ICAM1 in BEAS2B, IC50. In outline: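 BEAS2B human bronchial epithelial cells pre-incubated 2 h with compound, then transfected with poly I:C (1 μg/mL) plus Oligofectamine. After 18 h, cell-surface ICAM-1 read by cell-based ELISA (A450–655), normalised to Crystal Violet cell number (A595); inhibition calculated against vehicle control at each concentration.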

The target of a further data set is GSK3α (Homo sapiens, UniProt P49840). Nature of the data set: GSK 3α enzyme inhibition (FRET), Method 1. Format: biochemical. Conditions: Table 4a1. The method in brief: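 GSK3α was preincubated with test compound for 2 hr at RT, then a FRET peptide substrate and ATP were added for 1 hr. Protease development for 1 hr cleaved only non-phosphorylated peptide, and phosphorylation was read as the coumarin/fluorescein emission ratio. Concentrations given are those of the added solutions: enzyme 500 ng/mL, peptide 8 μM, ATP 40 μM.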

The target of the next data set is Syk (Homo sapiens, UniProt P43405). Nature of the data set: Syk enzyme inhibition (FRET). In kind it is biochemical. The note with it: Table 4a1. In outline: as §1

Each structure is given as a SMILES string.

cSrc, sequence (P12931 whole entry): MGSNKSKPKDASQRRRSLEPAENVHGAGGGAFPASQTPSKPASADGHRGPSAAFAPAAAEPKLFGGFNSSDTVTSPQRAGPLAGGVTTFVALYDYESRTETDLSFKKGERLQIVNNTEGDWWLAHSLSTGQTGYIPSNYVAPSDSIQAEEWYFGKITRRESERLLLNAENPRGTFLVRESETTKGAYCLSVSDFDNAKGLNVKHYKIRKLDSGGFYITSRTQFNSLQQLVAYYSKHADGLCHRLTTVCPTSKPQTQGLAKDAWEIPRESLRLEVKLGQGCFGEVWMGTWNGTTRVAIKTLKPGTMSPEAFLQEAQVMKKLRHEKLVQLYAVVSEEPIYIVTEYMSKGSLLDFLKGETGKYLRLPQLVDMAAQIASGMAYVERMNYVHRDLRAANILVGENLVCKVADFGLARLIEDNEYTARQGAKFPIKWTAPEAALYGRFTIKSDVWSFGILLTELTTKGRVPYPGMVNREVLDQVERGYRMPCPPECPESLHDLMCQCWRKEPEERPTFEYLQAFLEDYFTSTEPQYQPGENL
GSK3α, sequence (P49840 whole entry): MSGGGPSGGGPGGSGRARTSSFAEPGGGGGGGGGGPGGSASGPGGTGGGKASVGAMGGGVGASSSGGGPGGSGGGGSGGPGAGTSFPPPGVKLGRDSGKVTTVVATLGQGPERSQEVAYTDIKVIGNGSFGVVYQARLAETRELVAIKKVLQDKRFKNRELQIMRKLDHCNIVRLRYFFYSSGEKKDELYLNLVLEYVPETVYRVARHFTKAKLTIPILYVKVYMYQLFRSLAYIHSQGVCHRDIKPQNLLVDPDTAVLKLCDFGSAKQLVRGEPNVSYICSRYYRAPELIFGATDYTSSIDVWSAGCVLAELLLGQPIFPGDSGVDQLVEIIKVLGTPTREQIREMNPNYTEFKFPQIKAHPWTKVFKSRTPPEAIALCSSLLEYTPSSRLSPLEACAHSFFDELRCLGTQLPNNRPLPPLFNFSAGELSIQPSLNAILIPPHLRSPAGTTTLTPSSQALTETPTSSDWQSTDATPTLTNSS

For `CCCNC(=O)c1cccc(Nc2nccc(Oc3ccc(NC(=O)Nc4cc(C(C)(C)C)nn4-c4ccc(OC)cc4)c4ccccc34)n2)c1` [Example 17, 3-(4-(4-(3-(3-tert-butyl-1-(4-methoxyphenyl)-1H-pyrazol-5-yl)ureido)naphthalen-1-yloxy)pyrimidin-2-ylamino)-N-propylbenzamide], the IC50 (usually the concentration that inhibits the measured activity by half) in data set [1] amounted to 1.8 nM; against cSrc, 3 nM; in data set [3], 2.6 nM; against GSK3α, 309 nM; against Syk, 35 nM. Besides, the “Cell viability at time point in d-U937 cells, 4 h” value with d-U937 cells is “−ve (−ve and +ve indicate that the value is below and above respectively, the no significant effect threshold, defined as 30% inhibition at 1 μg/mL at the time point indicated)”. For the same compound, the “Cell viability at time point in d-U937 cells, 24 h” value (“Cell viability at time point … 24 h” for short) in the data set with d-U937 cells was “−ve (−ve and +ve indicate that the value is below and above respectively, the no significant effect threshold, defined as 30% inhibition at 1 μg/mL at the time point indicated)”. In data set [2], the EC50 turned out to be 1.5 nM.

As to `Cc1ccc(-n2nc(C(C)(C)C)cc2NC(=O)Nc2ccc(Oc3ccnc(Nc4cccc(C(=O)NCCN(C)C)c4)n3)c3ccccc23)cc1` [Example 18, 3-((4-((4-(3-(3-(tert-butyl)-1-(p-tolyl)-1H-pyrazol-5-yl)ureido)naphthalen-1-yl)oxy)pyrimidin-2-yl)amino)-N-(2-(dimethylamino)ethyl)benzamide], the IC50 in data set [1] was 1.8 nM; at cSrc it was 7 nM; in data set [3] it was 2.3 nM; against GSK3α it was 295 nM; against Syk, over 1440 nM. In the data set with d-U937 cells, the “Cell viability at time point in d-U937 cells, 4 h” value was “−ve (−ve and +ve indicate that the value is below and above respectively, the no significant effect threshold, defined as 30% inhibition at 1 μg/mL at the time point indicated)”. For the same compound, the “Cell viability at time point … 24 h” value with d-U937 cells is “−ve (−ve and +ve indicate that the value is below and above respectively, the no significant effect threshold, defined as 30% inhibition at 1 μg/mL at the time point indicated)”. Further, in data set [2], the EC50 was found to be 1.5 nM.

`COc1ccc(-n2nc(C(C)(C)C)cc2NC(=O)Nc2ccc(Oc3ccnc(Nc4cccc(C(=O)NCCN5CCOCC5)c4)n3)c3ccccc23)cc1` [Example 21, 3-((4-((4-(3-(3-(tert-butyl)-1-(4-methoxyphenyl)-1H-pyrazol-5-yl)ureido)naphthalen-1-yl)oxy)pyrimidin-2-yl)amino)-N-(2-morpholinoethyl)benzamide]: the IC50 in data set [1] turned out to be 1.9 nM; at cSrc, 5 nM; in data set [3] it was 0.8 nM; against GSK3α, 356 nM; against Syk, 14 nM. Besides, in the data set on d-U937 cells, the “Cell viability at time point in d-U937 cells, 4 h” value is “−ve (−ve and +ve indicate that the value is below and above respectively, the no significant effect threshold, defined as 30% inhibition at 1 μg/mL at the time point indicated)”. Besides, the “Cell viability at time point … 24 h” value with d-U937 cells is “−ve (−ve and +ve indicate that the value is below and above respectively, the no significant effect threshold, defined as 30% inhibition at 1 μg/mL at the time point indicated)”. For the same compound, in data set [2], the EC50 was found to be 1.3 nM.

Take `Cc1ccc(-n2nc(C3(C)COC3)cc2NC(=O)Nc2ccc(Oc3ccnc(Nc4cccc(C(=O)NCCN5CCOCC5)c4)n3)c3ccccc23)cc1` [Example 22, 3-((4-((4-(3-(3-(3-methyloxetan-3-yl)-1-(p-tolyl)-1H-pyrazol-5-yl)ureido)naphthalen-1-yl)oxy)pyrimidin-2-yl)amino)-N-(2-morpholinoethyl)benzamide]: the IC50 in data set [1] was 1.3 nM; at cSrc it was under 1 nM; in data set [3], 4.1 nM; on GSK3α it was 930 nM; against Syk, 292 nM. The “Cell viability at time point in d-U937 cells, 4 h” value with d-U937 cells is “−ve (−ve and +ve indicate that the value is below and above respectively, the no significant effect threshold, defined as 30% inhibition at 1 μg/mL at the time point indicated)”. In addition, in the data set on d-U937 cells, the “Cell viability at time point … 24 h” value is “−ve (−ve and +ve indicate that the value is below and above respectively, the no significant effect threshold, defined as 30% inhibition at 1 μg/mL at the time point indicated)”. Also, the EC50 in data set [2] is 4.5 nM.

Turning to `Cc1csc(-n2nc(C(C)(C)C)cc2NC(=O)Nc2ccc(Oc3ccnc(Nc4cccc(C(=O)NCCN5CCOCC5)c4)n3)c3ccccc23)c1` [Example 24, 3-((4-((4-(3-(3-(tert-butyl)-1-(4-methylthiophen-2-yl)-1H-pyrazol-5-yl)ureido)naphthalen-1-yl)oxy)pyrimidin-2-yl)amino)-N-(2-morpholinoethyl)benzamide], the IC50 turned out to be 0.3 nM in data set [1]; 1 nM against cSrc; 1 nM in data set [3]; 207 nM at GSK3α; 14 nM against Syk. In addition, the “Cell viability at time point in d-U937 cells, 4 h” value in the data set on d-U937 cells was “−ve (−ve and +ve indicate that the value is below and above respectively, the no significant effect threshold, defined as 30% inhibition at 1 μg/mL at the time point indicated)”. In the data set on d-U937 cells, the “Cell viability at time point … 24 h” value is “−ve (−ve and +ve indicate that the value is below and above respectively, the no significant effect threshold, defined as 30% inhibition at 1 μg/mL at the time point indicated)”. Also, the EC50 in data set [2] amounted to 1.4 nM.

On to `Cc1ccc(-n2nc(C(C)(C)C)cc2NC(=O)Nc2ccc(Oc3ccnc(Nc4cccc(C(=O)NCCN5CCN(C)CC5)c4)n3)c3ccccc23)cc1` [Example 25, 3-((4-((4-(3-(3-(tert-butyl)-1-(p-tolyl)-1H-pyrazol-5-yl)ureido)naphthalen-1-yl)oxy)pyrimidin-2-yl)amino)-N-(2-(4-methylpiperazin-1-yl)ethyl)benzamide], for which the IC50 in data set [1] is 1.5 nM; against cSrc, 4 nM; in data set [3], 1.9 nM; at GSK3α it was 285 nM; against Syk, over 1330 nM. Moreover, in the data set with d-U937 cells, the “Cell viability at time point in d-U937 cells, 4 h” value is “−ve (−ve and +ve indicate that the value is below and above respectively, the no significant effect threshold, defined as 30% inhibition at 1 μg/mL at the time point indicated)”. Also, the “Cell viability at time point … 24 h” value in the data set on d-U937 cells is “−ve (−ve and +ve indicate that the value is below and above respectively, the no significant effect threshold, defined as 30% inhibition at 1 μg/mL at the time point indicated)”. Also, in data set [2], the EC50 came out at 0.6 nM.

Consider `Cc1ccc(-n2nc(C(C)(C)C)cc2NC(=O)Nc2ccc(Oc3ccnc(Nc4cccc(C(=O)N(C)C)c4)n3)c3ccccc23)cc1` [Example 26, 3-((4-((4-(3-(3-(tert-butyl)-1-(p-tolyl)-1H-pyrazol-5-yl)ureido)naphthalen-1-yl)oxy)pyrimidin-2-yl)amino)-N,N-dimethylbenzamide], for which the IC50 in data set [1] worked out at 2.3 nM; at cSrc, 6 nM; in data set [3], 11.1 nM; against GSK3α, 390 nM; against Syk, 14 nM. In addition, the “Cell viability at time point in d-U937 cells, 4 h” value in the data set on d-U937 cells is “−ve (−ve and +ve indicate that the value is below and above respectively, the no significant effect threshold, defined as 30% inhibition at 1 μg/mL at the time point indicated)”. Moreover, the “Cell viability at time point … 24 h” value in the data set with d-U937 cells was “−ve (−ve and +ve indicate that the value is below and above respectively, the no significant effect threshold, defined as 30% inhibition at 1 μg/mL at the time point indicated)”. The EC50 in data set [2] turned out to be 0.5 nM.
